Laboratory results from PMC4850295, “Using a Genetically Encoded Sensor to Identify Inhibitors of Toxoplasma gondii Ca^2+ Signaling” (The Journal of Biological Chemistry, 2016).

molecular target: T1, recombinant T. gondii PKG (cGMP-dependent protein kinase; protein kinase G) (Toxoplasma gondii, UniProt Q8MMZ7); experiment: in vitro kinase assay (CycLex PKG assay kit); format: biochemical; conditions: 6.76 nM recombinant PKG
T1 sequence (Q8MMZ7 whole entry): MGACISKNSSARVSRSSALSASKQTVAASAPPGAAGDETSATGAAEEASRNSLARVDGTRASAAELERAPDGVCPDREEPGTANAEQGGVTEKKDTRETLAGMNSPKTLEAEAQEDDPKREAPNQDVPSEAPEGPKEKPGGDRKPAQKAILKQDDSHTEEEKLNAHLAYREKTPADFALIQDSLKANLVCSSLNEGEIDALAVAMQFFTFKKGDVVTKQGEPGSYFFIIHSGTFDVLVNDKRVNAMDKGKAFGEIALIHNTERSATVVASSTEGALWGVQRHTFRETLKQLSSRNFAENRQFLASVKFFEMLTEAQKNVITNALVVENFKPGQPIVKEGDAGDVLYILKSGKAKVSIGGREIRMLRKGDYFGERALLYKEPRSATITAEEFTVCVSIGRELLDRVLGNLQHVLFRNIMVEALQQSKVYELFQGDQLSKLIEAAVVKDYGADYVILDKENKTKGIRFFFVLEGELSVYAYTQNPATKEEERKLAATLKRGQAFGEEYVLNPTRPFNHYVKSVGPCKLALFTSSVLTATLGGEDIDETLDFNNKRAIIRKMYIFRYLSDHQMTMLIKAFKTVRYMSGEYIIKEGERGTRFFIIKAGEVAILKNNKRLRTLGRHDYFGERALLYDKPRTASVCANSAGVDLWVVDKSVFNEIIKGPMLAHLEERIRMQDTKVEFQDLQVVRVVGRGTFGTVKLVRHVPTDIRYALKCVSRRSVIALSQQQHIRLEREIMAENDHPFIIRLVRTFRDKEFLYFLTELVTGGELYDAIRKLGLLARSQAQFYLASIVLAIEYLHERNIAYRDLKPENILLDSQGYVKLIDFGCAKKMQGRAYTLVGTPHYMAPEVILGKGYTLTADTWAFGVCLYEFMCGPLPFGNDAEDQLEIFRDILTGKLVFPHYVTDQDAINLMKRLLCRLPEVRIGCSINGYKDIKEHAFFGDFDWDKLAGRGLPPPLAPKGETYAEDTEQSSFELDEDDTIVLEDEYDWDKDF

For `CN(C)Cc1ccn2c(-c3ccnc(N)n3)c(-c3ccc(F)cc3)nc2c1` [Cpd2, Compound 2], the “activity versus inhibitor concentration” value was “presence of increasing concentrations of Inh1, Inh2, or the PKG inhibitor Cpd2”.

molecular target: T1, recombinant T. gondii PKG (cGMP-dependent protein kinase; protein kinase G); experiment: in vitro kinase assay (CycLex PKG assay kit); format: biochemical; conditions: not given

`Fc1ccc(-c2nn3ncccc3c2-c2ccnc(Nc3ccc4c(c3)OCCO4)n2)cc1` [Inh1] and `Nc1nc(-c2ccc3c(c2)C(=Cc2cc(Br)c(O)c(Br)c2)C(=O)N3)cs1` [Inh2] are within 1.5-fold of each other in IC50: 580 nM for the first, 670 nM for the second.

tested on: T2, GCaMP5-expressing T. gondii; experiment: not given; set-up: species or system GCaMP5-expressing Toxoplasma gondii, extracellular; GCaMP5 fluorescence (cytosolic Ca2+) after 100 uM zaprinast in compound-pretreated extracellular parasites, background-subtracted, relative to zaprinast alone; conditions: 100 uM zaprinast stimulation, 10 min pretreatment, mean of two replicates, 0.23 h, 10 µM
T2 construct: whole extracellular parasites expressing GCaMP5 Ca2+ sensor
Method in brief: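 Extracellular GCaMP5-expressing parasites in Ringer's solution were pretreated with compounds (single 10 μM dose, two biological replicates) for 10 min, then stimulated with 100 μM zaprinast at 37 °C for 4 min. Fluorescence read at 485/525 nm, basal subtracted, expressed as fold change relative to zaprinast-only parasites.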

`Fc1ccc(-c2nc3n(c2-c2ccncc2)CCS3)cc1` [SKF-86002] was tested, and the “fold change in fluorescence relative to zaprinast alone” value was 1.092.

same assay, conditions: 100 uM zaprinast stimulation; 10 min pretreatment; mean of two replicates; 0.23 h

First: Fc1ccc(-c2nn3ncccc3c2-c2ccnc(Nc3ccc4c(c3)OCCO4)n2)cc1 [Inh1]
Second: Fc1ccc(-c2c(-c3ccncc3)nc3n2CCS3)cc1 [SKF-86055]
The “fold change in fluorescence relative to zaprinast alone” value of the first is lower: -0.1251 for the first, 1.285 for the second.

Compared with `Nc1nc(-c2ccc3c(c2)C(=Cc2cc(Br)c(O)c(Br)c2)C(=O)N3)cs1` [Inh2], `O=C(Nc1n[nH]c2cc(-c3cc(F)ccc3F)ccc12)C1CC1` [SB-735465] is higher in “fold change in fluorescence relative to zaprinast alone” value: 0.1475 for the first, 1.125 for the second.

Compared with `O=C(Nc1n[nH]c2cc(-c3cccc(F)c3)ccc12)C1CC1` [SB-735464], `O=C(Nc1n[nH]c2cc(-c3ccc(F)cc3)ccc12)C1CC1` [SB-735467] is lower in “fold change in fluorescence relative to zaprinast alone” value: 1.069 for the first, 0.9628 for the second.

Going from `Cn1c(-c2nonc2N)nc2cnccc21` [SB-736290] to `Nc1nonc1-c1nc2cnccc2n1C1CC1` [SB-736302], the “fold change in fluorescence relative to zaprinast alone” value rises from 1.181 to 1.282.

First: CCn1c(-c2ccccn2)nc2cnccc21 [SB-736398]
Second: CCn1c(-c2ccc[nH]c2=O)nc2cnccc21 [SB-736715]
The “fold change in fluorescence relative to zaprinast alone” value of the first is higher: 1.076 for the first, 0.9368 for the second.

First: CCOc1nccc2c1nc(-c1nonc1N)n2CC [SB-737198]
Second: CCc1nccc2c1nc(-c1nonc1N)n2CC [SB-751148]
The “fold change in fluorescence relative to zaprinast alone” value of the first is lower: 0.8453 for the first, 1.115 for the second.

First: O=C(Nc1n[nH]c2cc(-c3ccco3)ccc12)C1CC1 [SB-737447]
Second: O=C(Nc1n[nH]c2cc(-c3ccoc3)ccc12)C1CC1 [SB-738481]
The “fold change in fluorescence relative to zaprinast alone” value of the first is lower: 1.13 for the first, 1.2 for the second.

Compared with `CCn1c(-c2c(N)noc2C)nc2cnccc21` [SB-737856], `CCn1c(-c2nonc2N)nc2ccncc21` [SB-738561] is higher in “fold change in fluorescence relative to zaprinast alone” value: 0.9935 for the first, 1.114 for the second.

First: CCn1c(-c2nonc2N)nc2cncc(Br)c21 [SB-738004]
Second: CCn1c(-c2nonc2N)nc2cncc(C(=O)N3CC[C@H](N)C3)c21 [SB-772077-B]
The “fold change in fluorescence relative to zaprinast alone” value of the first is lower: 0.8309 for the first, 1.135 for the second.

Compared with `NS(=O)(=O)c1ccc(-c2ccc3c(NC(=O)C4CC4)n[nH]c3c2)cc1` [SB-738482], `NS(=O)(=O)c1cccc(-c2ccc3c(NC(=O)C4CC4)n[nH]c3c2)c1` [SB-741905] is higher in “fold change in fluorescence relative to zaprinast alone” value: 1.098 for the first, 1.374 for the second.

Going from `O=C(Nc1n[nH]c2nc(-c3ccco3)c(Br)cc12)C1CC1` [SB-739452] to `O=C(Nc1n[nH]c2nc(-c3ccco3)ccc12)C1CC1` [SB-743899], the “fold change in fluorescence relative to zaprinast alone” value rises from 1.083 to 1.211.

Compared with `O=C(Nc1n[nH]c2nc(-c3ccco3)c(Br)cc12)C1CCN(Cc2ccccc2)C1` (stereo not drawn) [SB-742034-AC], `O=C(Nc1n[nH]c2nc(-c3cccs3)c(Br)cc12)C1CCCC1` [SB-743341] is higher in “fold change in fluorescence relative to zaprinast alone” value: 0.9039 for the first, 0.9376 for the second.

Going from `O=C(Nc1n[nH]c2nc(-c3nccs3)c(Br)cc12)C1CC1` [SB-742251] to `O=C(Nc1n[nH]c2nc(-c3nccs3)c(Br)cc12)C1CCCC1` [SB-742609], the “fold change in fluorescence relative to zaprinast alone” value falls from 1.325 to 1.102.

Compared with `CCn1c(-c2nonc2N)nc2c(N3CCCC3)nccc21` [SB-744941], `CCn1c(-c2nonc2N)nc2cncc(C(=O)N3CCNCC3)c21` [SB-759335-B] is higher in “fold change in fluorescence relative to zaprinast alone” value: 0.961 for the first, 1.333 for the second.

Going from `CCn1c(-c2nonc2N)nc2cncc(CNC3CCNCC3)c21` [SB-747651-A] to `CN(C)CCCn1c(-c2nonc2N)nc2cnccc21` [SB-751399], the “fold change in fluorescence relative to zaprinast alone” value falls from 1.501 to 1.355.

Compared with `NCc1ccc(-n2c(-c3nonc3N)nc3cnccc32)cc1` [SB-750140], `Nc1ncnc2c1ncn2-c1cccc2ccccc12` [SKF-97184] is lower in “fold change in fluorescence relative to zaprinast alone” value: 1.416 for the first, 0.9854 for the second.

Going from `Cn1nc(-c2ccc(NC(=O)Nc3ccc4ccccc4c3)c(F)c2)c2cnc(NCCN3CCOCC3)nc21` [SB-750250-M] to `COc1ccc(-c2nc3n(c2-c2ccncc2)CCC3)cc1` [SKF-104493-B2], the “fold change in fluorescence relative to zaprinast alone” value falls from 1.757 to 0.9045.

Compared with `Nc1nc(N)c2[nH]c(-c3ccccc3)nc2n1` [SKF-12778], `Nc1ncnc2c1nc(-c1ccccc1)n2-c1ccccc1` [SKF-97293] is higher in “fold change in fluorescence relative to zaprinast alone” value: 1.022 for the first, 1.205 for the second.

First: Cn1ncc2c(N)ncnc21 [SKF-18267]
Second: Cn1cnc2c(N)ncnc21 [SKF-97623]
The “fold change in fluorescence relative to zaprinast alone” value of the first is lower: 0.9633 for the first, 1.06 for the second.

Compared with `CNc1ncnc2[nH]ncc12` [SKF-18355], `CN(C)c1ncnc2nc[nH]c12` [SKF-31736] is higher in “fold change in fluorescence relative to zaprinast alone” value: 1.025 for the first, 1.087 for the second.

Compared with `CCn1cnc2c(NCc3ccccc3)ncnc21` [SKF-96418], `Cc1ccccc1-n1cnc2c(N)ncnc21` [SKF-97510] is higher in “fold change in fluorescence relative to zaprinast alone” value: 0.8238 for the first, 1.09 for the second.

First: COc1ccc(-n2cnc3c(N)ncnc32)cc1 [SKF-97236]
Second: COc1cccc(-n2cnc3c(N)ncnc32)c1 [SKF-97416]
The “fold change in fluorescence relative to zaprinast alone” value of the first is lower: 1.027 for the first, 1.043 for the second.

Going from `CCCCCc1nc2c(N)ncnc2n1CCCCC` [SKF-97255] to `CCC(CC)(CC)n1cnc2c(N)ncnc21` [SKF-97620], the “fold change in fluorescence relative to zaprinast alone” value rises from 0.8987 to 0.9821.

First: CC(C)(C)c1ccc(-n2cnc3c(N)ncnc32)cc1 [SKF-97263]
Second: Nc1ncnc2c1ncn2-c1cccc(F)c1 [SKF-97560]
The “fold change in fluorescence relative to zaprinast alone” value of the first is lower: 1.008 for the first, 1.042 for the second.

Compared with `CC(C)(C)n1cnc2c(N)ncnc21` [SKF-97359], `CSc1ccc(-c2nc3n(c2-c2ccncc2)CCC3)cc1` [SKF-105561] is lower in “fold change in fluorescence relative to zaprinast alone” value: 1.052 for the first, 0.9692 for the second.

Compared with `Fc1ccc(-c2c(-c3ccccn3)nc3n2CCS3)cc1` [SKF-104365], `CCSc1ccc(-c2nc3n(c2-c2ccncc2)CCC3)cc1` [SKF-106164-A2] is higher in “fold change in fluorescence relative to zaprinast alone” value: 0.9062 for the first, 1.019 for the second.

In the case of `CS(=O)(=O)c1ccc(-c2nc3n(c2-c2ccncc2)CCC3)cc1` [SKF-105942], the “fold change in fluorescence relative to zaprinast alone” value is reported as 0.9941.
